From ChEMBL document CHEMBL1130155, “Synthesis and structure-activity relationships of potent thrombin inhibitors: piperazides of 3-amidinophenylalanine” (J Med Chem, 1997)

How the values were obtained:
Prothrombin = Prothrombin (Bos taurus, UniProt P00735)
Description: Inhibitory activity against thrombin

Serine protease 1 = molecular target: T1, Serine protease 1 (Bos taurus, UniProt P00760); test: Inhibitory activity against trypsin
T1 sequence (P00760 whole entry): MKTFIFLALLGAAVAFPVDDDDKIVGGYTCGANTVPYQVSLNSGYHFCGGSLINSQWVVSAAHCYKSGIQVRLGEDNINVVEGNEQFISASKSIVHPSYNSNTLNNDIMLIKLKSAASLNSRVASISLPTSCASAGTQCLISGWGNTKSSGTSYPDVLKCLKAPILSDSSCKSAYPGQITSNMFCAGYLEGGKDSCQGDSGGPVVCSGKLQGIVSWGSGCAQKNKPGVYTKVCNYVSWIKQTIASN

Plasminogen [1] = molecular target: T2, Plasminogen (Homo sapiens, UniProt P00747); test: Inhibitory activity against plasmin
T2 sequence (P00747 97-580 limits assumed): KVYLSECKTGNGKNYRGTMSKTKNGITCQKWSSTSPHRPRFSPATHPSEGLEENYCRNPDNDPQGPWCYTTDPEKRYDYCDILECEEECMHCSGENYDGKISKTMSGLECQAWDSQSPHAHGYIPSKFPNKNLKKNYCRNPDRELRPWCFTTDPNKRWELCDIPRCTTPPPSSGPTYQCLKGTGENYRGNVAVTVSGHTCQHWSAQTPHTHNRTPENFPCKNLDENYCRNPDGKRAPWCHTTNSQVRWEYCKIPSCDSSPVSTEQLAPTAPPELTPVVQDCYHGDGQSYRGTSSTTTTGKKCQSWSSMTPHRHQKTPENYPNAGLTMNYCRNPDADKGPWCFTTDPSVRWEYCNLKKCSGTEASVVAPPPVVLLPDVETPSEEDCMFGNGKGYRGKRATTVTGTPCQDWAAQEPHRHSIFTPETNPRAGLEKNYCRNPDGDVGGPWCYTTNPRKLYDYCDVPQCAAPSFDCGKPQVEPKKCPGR
T2 sequence (P00747 581-810 limits assumed): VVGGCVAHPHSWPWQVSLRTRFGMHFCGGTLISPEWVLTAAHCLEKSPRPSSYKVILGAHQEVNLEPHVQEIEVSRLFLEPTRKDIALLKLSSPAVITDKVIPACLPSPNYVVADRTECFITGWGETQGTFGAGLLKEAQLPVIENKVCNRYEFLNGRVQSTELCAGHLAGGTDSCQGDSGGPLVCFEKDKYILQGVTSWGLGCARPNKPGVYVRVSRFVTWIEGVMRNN

Coagulation factor X = Coagulation factor X (Bos taurus, UniProt P00743); test: Inhibitory activity against coagulation factor X.
Coagulation factor X, sequence (P00743 41-180 limits assumed): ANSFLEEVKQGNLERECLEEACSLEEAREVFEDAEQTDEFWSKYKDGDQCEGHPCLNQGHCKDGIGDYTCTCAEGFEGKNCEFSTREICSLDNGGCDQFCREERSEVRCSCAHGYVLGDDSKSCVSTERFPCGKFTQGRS
Coagulation factor X, sequence (P00743 234-492 limits assumed): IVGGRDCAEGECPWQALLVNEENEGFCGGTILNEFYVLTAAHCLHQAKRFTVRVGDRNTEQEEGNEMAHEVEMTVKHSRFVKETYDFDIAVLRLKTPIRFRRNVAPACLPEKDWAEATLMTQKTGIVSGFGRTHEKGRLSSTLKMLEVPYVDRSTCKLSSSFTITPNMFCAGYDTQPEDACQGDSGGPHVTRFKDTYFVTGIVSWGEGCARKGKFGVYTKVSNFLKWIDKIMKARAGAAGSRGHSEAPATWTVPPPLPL

Plasma kallikrein = Plasma kallikrein (Homo sapiens, UniProt P03952); test: Inhibitory activity against Kallikrein (PK)
Plasma kallikrein, sequence (P03952 20-390 limits assumed): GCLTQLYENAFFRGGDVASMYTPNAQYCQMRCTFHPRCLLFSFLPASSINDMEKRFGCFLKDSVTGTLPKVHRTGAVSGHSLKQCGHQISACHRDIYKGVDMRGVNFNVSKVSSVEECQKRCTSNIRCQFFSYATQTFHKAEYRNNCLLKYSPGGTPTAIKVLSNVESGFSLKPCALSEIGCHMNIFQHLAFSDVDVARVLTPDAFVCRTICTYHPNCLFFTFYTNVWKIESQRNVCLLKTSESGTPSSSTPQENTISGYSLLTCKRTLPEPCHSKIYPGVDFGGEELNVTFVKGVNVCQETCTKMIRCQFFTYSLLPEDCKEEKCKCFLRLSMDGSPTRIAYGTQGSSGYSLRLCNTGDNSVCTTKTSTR
Plasma kallikrein, sequence (P03952 391-638 limits assumed): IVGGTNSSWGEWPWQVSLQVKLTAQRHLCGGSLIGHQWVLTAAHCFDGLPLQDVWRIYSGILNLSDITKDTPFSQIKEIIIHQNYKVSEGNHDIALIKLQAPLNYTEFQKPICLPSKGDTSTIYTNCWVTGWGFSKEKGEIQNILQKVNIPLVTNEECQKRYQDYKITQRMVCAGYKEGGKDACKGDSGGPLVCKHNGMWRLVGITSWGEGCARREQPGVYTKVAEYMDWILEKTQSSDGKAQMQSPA

Coagulation factor XII = molecular target: T3, Coagulation factor XII (Homo sapiens, UniProt P00748); test: Inhibitory activity against Coagulation factor XII
T3 sequence (P00748 whole entry): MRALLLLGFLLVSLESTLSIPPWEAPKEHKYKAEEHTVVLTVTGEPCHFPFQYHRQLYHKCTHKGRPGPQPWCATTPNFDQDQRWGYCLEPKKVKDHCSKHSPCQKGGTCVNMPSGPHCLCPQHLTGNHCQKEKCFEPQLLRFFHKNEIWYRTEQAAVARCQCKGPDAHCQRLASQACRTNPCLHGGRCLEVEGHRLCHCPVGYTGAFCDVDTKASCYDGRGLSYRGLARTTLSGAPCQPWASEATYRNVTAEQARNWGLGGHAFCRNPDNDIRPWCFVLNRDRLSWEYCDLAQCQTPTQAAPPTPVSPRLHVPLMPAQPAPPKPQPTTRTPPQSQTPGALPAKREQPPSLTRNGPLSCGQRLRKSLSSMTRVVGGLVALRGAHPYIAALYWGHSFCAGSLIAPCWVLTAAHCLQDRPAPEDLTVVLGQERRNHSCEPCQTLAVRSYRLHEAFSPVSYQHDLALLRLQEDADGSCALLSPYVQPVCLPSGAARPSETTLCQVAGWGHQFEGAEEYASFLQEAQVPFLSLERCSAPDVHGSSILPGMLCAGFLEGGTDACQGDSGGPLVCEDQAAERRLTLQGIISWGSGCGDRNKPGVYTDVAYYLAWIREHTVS

[2] = Concentration for doubling of prothrombin time; type: functional, Homo sapiens
[3] = molecular target: Vitamin K-dependent protein C (Homo sapiens, UniProt P04070); test: Inhibitory activity against Activated protein C
Vitamin K-dependent protein C, sequence (P04070 43-197 limits assumed): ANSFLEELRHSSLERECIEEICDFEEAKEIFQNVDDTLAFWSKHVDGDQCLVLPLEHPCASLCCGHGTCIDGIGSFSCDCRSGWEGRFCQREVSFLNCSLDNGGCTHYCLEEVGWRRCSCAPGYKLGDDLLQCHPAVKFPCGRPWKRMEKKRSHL
Vitamin K-dependent protein C, sequence (P04070 212-461 limits assumed): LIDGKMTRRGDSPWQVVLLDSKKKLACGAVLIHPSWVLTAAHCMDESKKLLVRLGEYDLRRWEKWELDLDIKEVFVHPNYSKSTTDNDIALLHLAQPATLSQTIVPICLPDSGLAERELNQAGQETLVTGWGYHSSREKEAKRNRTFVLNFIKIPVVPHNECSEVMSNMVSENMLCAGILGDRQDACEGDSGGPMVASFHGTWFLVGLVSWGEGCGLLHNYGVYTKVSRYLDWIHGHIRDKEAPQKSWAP

[4] = Concentration for doubling of partial thromboplastin time; type: functional, Homo sapiens
[5] = Concentration for doubling of thrombin time; type: functional, Homo sapiens
[6] = molecular target: Urokinase-type plasminogen activator (Homo sapiens, UniProt P00749); test: Inhibitory activity against UK.
[7] = molecular target: Tissue-type plasminogen activator (Homo sapiens, UniProt P00750); test: Inhibitory activity against single-chain tissue-type plasminogen activator (sc-tissue plasminogen activator)
Tissue-type plasminogen activator, sequence (P00750 whole entry): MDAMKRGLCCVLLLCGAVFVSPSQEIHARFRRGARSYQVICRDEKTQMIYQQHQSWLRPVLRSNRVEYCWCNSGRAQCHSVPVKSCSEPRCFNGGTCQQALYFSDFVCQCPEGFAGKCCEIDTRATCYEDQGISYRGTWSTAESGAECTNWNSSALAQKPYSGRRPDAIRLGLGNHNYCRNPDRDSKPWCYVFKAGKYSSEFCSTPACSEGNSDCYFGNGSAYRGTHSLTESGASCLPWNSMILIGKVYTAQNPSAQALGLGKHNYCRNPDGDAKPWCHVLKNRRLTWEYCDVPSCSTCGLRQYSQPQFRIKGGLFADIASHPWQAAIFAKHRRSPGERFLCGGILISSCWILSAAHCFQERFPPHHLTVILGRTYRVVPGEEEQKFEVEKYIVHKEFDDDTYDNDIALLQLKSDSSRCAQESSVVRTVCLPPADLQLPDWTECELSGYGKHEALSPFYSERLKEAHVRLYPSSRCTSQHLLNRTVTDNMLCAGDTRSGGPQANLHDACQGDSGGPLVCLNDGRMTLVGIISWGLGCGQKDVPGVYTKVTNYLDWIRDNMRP

Plasminogen [8] = molecular target: T2, Plasminogen; test: Inhibitory activity against Plasmin.

SMILES	Ki (Prothrombin)	Ki (Serine protease 1)	Ki (Plasminogen [1])	Ki (Coagulation factor X)	also measured
N=C(N)c1cccc(C[C@H](NS(=O)(=O)c2ccc3ccccc3c2)C(=O)N2CCN(CCO)CC2)c1	5.6 µM	39 µM			
CS(=O)(=O)N1CCN(C(=O)C(Cc2cccc(C(=N)N)c2)NS(=O)(=O)c2ccc3ccccc3c2)CC1 (stereo not given)		0.19 µM			
N=C(N)c1cccc(CC(NS(=O)(=O)c2ccc3ccccc3c2)C(=O)N2CCCCC2)c1 (stereo not given)			7 µM	38 µM	
N=C(N)c1cccc(CC(NS(=O)(=O)c2ccc3ccccc3c2)C(=O)N2CCN(C(=O)c3ccccc3)CC2)c1 (stereo not given)	7.6 µM	0.14 µM	7.2 µM	16 µM	
CC(=O)N1CCN(C(=O)[C@H](Cc2cccc(C(=N)N)c2)NS(=O)(=O)c2ccc3ccccc3c2)CC1		17 µM			
N=C(N)c1cccc(CC(NS(=O)(=O)c2ccc3ccccc3c2)C(=O)N2CCN(CCO)CC2)c1 (stereo not given)		1.1 µM			
CS(=O)(=O)N1CCN(C(=O)C(Cc2cccc(C(=N)N)c2)NS(=O)(=O)c2ccccc2)CC1 (stereo not given)	0.22 µM	1 µM	29 µM	29 µM	
N=C(N)c1cccc(CC(NS(=O)(=O)c2ccc3ccccc3c2)C(=O)N2CCN(c3ccccc3)CC2)c1 (stereo not given)			2.6 µM	27 µM	
COc1cc(C)c(S(=O)(=O)NC(Cc2cccc(C(=N)N)c2)C(=O)N2CCN(S(C)(=O)=O)CC2)c(C)c1C (stereo not given)		1.8 µM			
N=C(N)c1cccc(CC(NS(=O)(=O)c2ccc3ccccc3c2)C(=O)N2CCN(C(=O)c3ccc4ccccc4c3)CC2)c1 (stereo not given)	0.46 µM	0.19 µM	3 µM	7.3 µM	
N=C(N)c1cccc(C[C@H](NS(=O)(=O)c2ccc3ccccc3c2)C(=O)N2CCN(C=O)CC2)c1	1.6 µM	11.1 µM			
Cc1ccc(S(=O)(=O)N2CCN(C(=O)C(Cc3cccc(C(=N)N)c3)NS(=O)(=O)c3ccc4ccccc4c3)CC2)cc1 (stereo not given)		0.22 µM			
CCCS(=O)(=O)N1CCN(C(=O)C(Cc2cccc(C(=N)N)c2)NS(=O)(=O)c2ccc3ccccc3c2)CC1 (stereo not given)	0.28 µM	0.21 µM	7.8 µM	22 µM	
CC(=O)N1CCN(C(=O)C(Cc2cccc(C(=N)N)c2)NS(=O)(=O)c2ccc3ccccc3c2)CC1 (stereo not given)		0.14 µM			
N=C(N)c1cccc(C[C@@H](NS(=O)(=O)c2ccc3ccccc3c2)C(=O)N2CCN(CCO)CC2)c1	0.037 µM	0.6 µM		22 µM	Ki (Plasma kallikrein): 27 µM; Ki (Coagulation factor XII): 400 µM; IC50 [2]: 1.1 µM; Ki [3]: 39 µM; IC50 [4]: 0.56 µM; IC50 [5]: 0.14 µM; Ki [6]: 140 µM; Ki [7]: 180 µM; Ki (Plasminogen [8]): 21 µM
CS(=O)(=O)N1CCN(C(=O)[C@@H](Cc2cccc(C(=N)N)c2)NS(=O)(=O)c2ccc3ccccc3c2)CC1		0.067 µM		19 µM	Ki (Plasma kallikrein): 58 µM; Ki (Coagulation factor XII): 52 µM; IC50 [2]: 0.39 µM; Ki [3]: 15.2 µM; IC50 [4]: 0.26 µM; IC50 [5]: 0.037 µM; Ki [6]: 28 µM; Ki [7]: 190 µM; Ki (Plasminogen [8]): 9 µM
CN1CCN(C(=O)C(Cc2cccc(C(=N)N)c2)NS(=O)(=O)c2ccc3ccccc3c2)CC1 (stereo not given)	0.036 µM		55 µM	30 µM	
CCN(CC)C(=O)N1CCN(C(=O)C(Cc2cccc(C(=N)N)c2)NS(=O)(=O)c2ccc3ccccc3c2)CC1 (stereo not given)	0.51 µM	0.22 µM	14 µM	12 µM	
CN(C)C(=O)N1CCN(C(=O)[C@@H](Cc2cccc(C(=N)N)c2)NS(=O)(=O)c2ccc3ccccc3c2)CC1	0.004 µM	0.097 µM		16 µM	Ki (Plasma kallikrein): 7.3 µM; Ki (Coagulation factor XII): 61 µM; IC50 [2]: 0.72 µM; Ki [3]: 13.5 µM; IC50 [4]: 0.39 µM; IC50 [5]: 0.042 µM; Ki [6]: 28 µM; Ki [7]: > 1000 µM; Ki (Plasminogen [8]): 4.9 µM
Cc1c(C)c(S(=O)(=O)N[C@H](Cc2cccc(C(=N)N)c2)C(=O)N2CCN(S(C)(=O)=O)CC2)c(C)c2c1OC(C)(C)CC2	0.0053 µM	0.32 µM		41 µM	Ki (Plasma kallikrein): 97 µM; Ki (Coagulation factor XII): > 1000 µM; Ki [3]: 180 µM; Ki [6]: 58 µM; Ki [7]: 470 µM
CN(C)C(=O)N1CCN(C(=O)C(Cc2cccc(C(=N)N)c2)NS(=O)(=O)c2ccc3ccccc3c2)CC1 (stereo not given)		0.17 µM			
Cc1c(C)c(S(=O)(=O)NC(Cc2cccc(C(=N)N)c2)C(=O)N2CCN(S(C)(=O)=O)CC2)c(C)c2c1OC(C)(C)CC2 (stereo not given)		0.76 µM			
N=C(N)c1cccc(CC(NS(=O)(=O)c2ccc3ccccc3c2)C(=O)N2CCN(C(=O)C3CCCCC3)CC2)c1 (stereo not given)		0.072 µM			

SMILES	Ki (Prothrombin)	Ki (Serine protease 1)	Ki (Plasminogen [1])	Ki (Coagulation factor X)	also measured
N=C(N)c1cccc(CC(NS(=O)(=O)c2ccc3ccccc3c2)C(=O)N2CCN(S(=O)(=O)c3ccccc3)CC2)c1 (stereo not given)		0.33 µM			
CC(C)c1cc(C(C)C)c(S(=O)(=O)NC(Cc2cccc(C(=N)N)c2)C(=O)N2CCN(S(C)(=O)=O)CC2)c(C(C)C)c1 (stereo not given)			6.4 µM	7.4 µM	
CN(C)C(=O)N1CCN(C(=O)[C@H](Cc2cccc(C(=N)N)c2)NS(=O)(=O)c2ccc3ccccc3c2)CC1	0.35 µM	8.5 µM			
CC1(C)C2CCC1(CCS(=O)(=O)N[C@H](Cc1cccc(C(=N)N)c1)C(=O)N1CCN(S(C)(=O)=O)CC1)C(=O)C2 (stereo not given in full)	0.012 µM	0.22 µM		1.1 µM	Ki (Plasma kallikrein): 22 µM; Ki (Coagulation factor XII): 55 µM; Ki [3]: 33 µM; Ki [6]: 49 µM; Ki [7]: 20 µM; Ki (Plasminogen [8]): 14 µM
N=C(N)c1cccc(CC(NS(=O)(=O)c2ccc3ccccc3c2)C(=O)N2CCNCC2)c1 (stereo not given)			10.2 µM	21 µM	
COC(=O)N1CCN(C(=O)C(Cc2cccc(C(=N)N)c2)NS(=O)(=O)c2ccc3ccccc3c2)CC1 (stereo not given)			2.8 µM	77 µM	
CN1CCN(C(=O)[C@H](Cc2cccc(C(=N)N)c2)NS(=O)(=O)c2ccc3ccccc3c2)CC1	7.1 µM	73 µM			
N=C(N)c1cccc(CC(NS(=O)(=O)c2ccc3ccccc3c2)C(=O)N2CCN(S(=O)(=O)c3ccc4ccccc4c3)CC2)c1 (stereo not given)		0.4 µM			
CCCCS(=O)(=O)N1CCN(C(=O)C(Cc2cccc(C(=N)N)c2)NS(=O)(=O)c2ccc3ccccc3c2)CC1 (stereo not given)	0.35 µM	0.18 µM	11 µM	18 µM	
CCOC(=O)N1CCN(C(=O)C(Cc2cccc(C(=N)N)c2)NS(=O)(=O)c2ccc3ccccc3c2)CC1 (stereo not given)	0.67 µM	0.022 µM	2.5 µM	54 µM	
N=C(N)c1cccc(CC(NS(=O)(=O)c2ccc3ccccc3c2)C(=O)N2CCN(C(=O)Oc3ccccc3)CC2)c1 (stereo not given)	17 µM	0.028 µM	2.3 µM	43 µM	
CS(=O)(=O)N1CCN(C(=O)[C@H](Cc2cccc(C(=N)N)c2)NS(=O)(=O)c2ccc3ccccc3c2)CC1		13 µM			
CCS(=O)(=O)N1CCN(C(=O)C(Cc2cccc(C(=N)N)c2)NS(=O)(=O)c2ccc3ccccc3c2)CC1 (stereo not given)		0.19 µM			
CCCCCC(=O)N1CCN(C(=O)C(Cc2cccc(C(=N)N)c2)NS(=O)(=O)c2ccc3ccccc3c2)CC1 (stereo not given)		0.064 µM			
CS(=O)(=O)N1CCN(C(=O)C(N)Cc2cccc(C(=N)N)c2)CC1 (stereo not given)			> 1000 µM	> 1000 µM	
N=C(N)c1cccc(CC(NS(=O)(=O)c2ccc3ccccc3c2)C(=O)N2CCN(C=O)CC2)c1 (stereo not given)		0.22 µM			
CC(C)(C)c1ccc(S(=O)(=O)NC(Cc2cccc(C(=N)N)c2)C(=O)N2CCN(S(C)(=O)=O)CC2)cc1 (stereo not given)			14 µM		
CCCC(=O)N1CCN(C(=O)C(Cc2cccc(C(=N)N)c2)NS(=O)(=O)c2ccc3ccccc3c2)CC1 (stereo not given)	1.04 µM	0.049 µM	8.6 µM	80 µM	
CC1CCN(C(=O)C(Cc2cccc(C(=N)N)c2)NS(=O)(=O)c2ccc3ccccc3c2)CC1 (stereo not given)			5.2 µM	41 µM	
CC1CNc2c(cccc2S(=O)(=O)N[C@@H](CCCNC(=N)N)C(=O)N2CCC(C)C[C@@H]2C(=O)O)C1 (single isomer, unassigned) [ARGATROBAN]					IC50 [2]: 0.66 µM; IC50 [4]: 0.42 µM; IC50 [5]: 0.062 µM
CC1(C)C2CCC1(CCS(=O)(=O)NC(Cc1cccc(C(=N)N)c1)C(=O)N1CCN(S(C)(=O)=O)CC1)C(=O)C2 (stereo in doubt; 28)	0.012 µM	0.22 µM	14 µM	1.1 µM	
CC1(C)C2CCC1(CCS(=O)(=O)NC(Cc1cccc(C(=N)N)c1)C(=O)N1CCN(S(C)(=O)=O)CC1)C(=O)C2 (stereo in doubt; 30)	0.031 µM	0.44 µM	29 µM	6.7 µM	
